target: not listed separately; assay: Inhibition of Saccharomyces cerevisiae alpha-glucosidase using p-nitrophenyl-alpha-D-glucopyranoside as substrate preincubated for 15 to 20 mins followed by substrate addition measured after 45 to 60 mins by spectrophotometric analysis

SMILES | IC50
C[C@H]1O[C@H](O[C@H]2[C@H](O)[C@@H](O)[C@@H](O[C@H]3[C@H](O)[C@@H](O)C(O)O[C@@H]3CO)O[C@@H]2CO)[C@H](O)[C@@H](O)[C@@H]1N[C@H]1C=C(CO)[C@@H](O)[C@H](O)[C@H]1O (stereo partly specified) [ACARBOSE] | 360 µM
O=C(CCc1ccc(N(S(=O)(=O)c2ccc(C(F)(F)F)cc2)S(=O)(=O)c2ccc(C(F)(F)F)cc2)cc1)N1CC[C@H](O)[C@H](O)C1 (relative stereo) | 594 µM
O=C(CCc1ccc(O)cc1)N1CC[C@@H](O)[C@@H](O)C1 (relative stereo) | 292 µM
O=C(CCc1ccsc1)N1CC[C@H](O)[C@@H](O)C1 (relative stereo) | 152 µM
O=C(CCc1ccc(O)cc1)Nc1ccc(CCC(=O)N2CC[C@H](O)[C@H](O)C2)cc1 (relative stereo) | 284 µM
Nc1ccc(CCC(=O)Nc2ccc(CCC(=O)N3CC[C@H](O)[C@H](O)C3)cc2)cc1 (relative stereo) | 247 µM
O=C(/C=C/c1ccc(O)cc1)N1CC[C@@H](O)[C@@H](O)C1 (relative stereo) | 442 µM
O=C(CCc1ccc(O)cc1)Nc1ccc(CCC(=O)N2CC[C@@H](O)[C@H](O)C2)cc1 (relative stereo) | 488 µM
OCCN1C[C@H](O)[C@@H](O)[C@H](O)[C@H]1CO [MIGLITOL] | 462 µM
Cn1c(CCC(=O)N2CC[C@@H](O)[C@@H](O)C2)cc2ccccc21 (relative stereo) | 389 µM
O=C(CCc1ccc(C(F)(F)F)cc1)N1CC[C@@H](O)[C@@H](O)C1 (relative stereo) | 742 µM
O=C(/C=C/c1ccc(C(F)(F)F)cc1)Nc1ccc(CCC(=O)N2CC[C@H](O)[C@H](O)C2)cc1 (relative stereo) | 890 µM
CC(C)(C)OC(=O)Nc1ccc(CCC(=O)N2CC[C@@H](O)[C@@H](O)C2)cc1 (relative stereo) | 663 µM
Nc1ccc(CCC(=O)N2CC[C@@H](O)[C@@H](O)C2)cc1 (relative stereo) | 211 µM
CC(C)(C)OC(=O)Nc1ccc(CCC(=O)Nc2ccc(CCC(=O)N3CC[C@H](O)[C@H](O)C3)cc2)cc1 (relative stereo) | 383 µM
O=C(/C=C/c1ccc(F)cc1)Nc1ccc(CCC(=O)N2CC[C@H](O)[C@H](O)C2)cc1 (relative stereo) | 349 µM
O=C(/C=C/c1ccsc1)Nc1ccc(CCC(=O)N2CC[C@H](O)[C@H](O)C2)cc1 (relative stereo) | 667 µM
O=C(Nc1ccc(CCC(=O)N2CC[C@H](O)[C@H](O)C2)cc1)c1ccsc1 (relative stereo) | 267 µM
O=C(/C=C/c1ccc(C(F)(F)F)cc1)Nc1ccc(CCC(=O)N2CC[C@@H](O)[C@H](O)C2)cc1 (relative stereo) | 710 µM
O=C(CCc1ccccc1)N1CC[C@@H](O)[C@@H](O)C1 (relative stereo) | 994 µM
O=C(CCc1ccc(C(F)(F)F)cc1)Nc1ccc(CCC(=O)N2CC[C@H](O)[C@H](O)C2)cc1 (relative stereo) | 479 µM
O=S(=O)(c1ccc(OC(F)(F)F)cc1)N1CC[C@@H](O)[C@@H](O)C1 (relative stereo) | 465 µM
Nc1ccc(CCC(=O)Nc2ccc(CCC(=O)N3CC[C@@H](O)[C@H](O)C3)cc2)cc1 (relative stereo) | 384 µM
O=C(CCc1ccc(NS(=O)(=O)c2ccc(F)cc2)cc1)N1CC[C@H](O)[C@H](O)C1 (relative stereo) | 749 µM
CC(C)(C)OC(=O)Nc1ccc(CCC(=O)Nc2ccc(CCC(=O)N3CC[C@@H](O)[C@H](O)C3)cc2)cc1 (relative stereo) | 746 µM
O=C(CCc1ccc(NS(=O)(=O)c2ccc(C(F)(F)F)cc2)cc1)N1CC[C@H](O)[C@H](O)C1 (relative stereo) | 103 µM
Nc1ccc(CCC(=O)N2CC[C@H](O)[C@@H](O)C2)cc1 (relative stereo) | 289 µM
OCC(CO)N[C@H]1C[C@](O)(CO)[C@@H](O)[C@H](O)[C@H]1O [VOGLIBOSE] | 325 µM
O=C(/C=C/c1ccsc1)N1CC[C@@H](O)[C@@H](O)C1 (relative stereo) | 888 µM
O=C(CCc1ccc(O)cc1)N1CC[C@H](O)[C@@H](O)C1 (relative stereo) | 422 µM

test system: Saccharomyces cerevisiae; assay: Potency index, ratio of voglibose IC50 to compound IC50 for inhibition of Saccharomyces cerevisiae alpha-glucosidase

SMILES | Ratio IC50
Nc1ccc(CCC(=O)N2CC[C@@H](O)[C@@H](O)C2)cc1 (relative stereo) | 2 to 3
O=C(CCc1ccc(NS(=O)(=O)c2ccc(C(F)(F)F)cc2)cc1)N1CC[C@H](O)[C@H](O)C1 (relative stereo) | 3 to 4

test system: Saccharomyces cerevisiae; assay: Potency index, ratio of acarbose IC50 to compound IC50 for inhibition of Saccharomyces cerevisiae alpha-glucosidase

SMILES | Ratio IC50
Nc1ccc(CCC(=O)N2CC[C@@H](O)[C@@H](O)C2)cc1 (relative stereo) | 2 to 3
O=C(CCc1ccc(NS(=O)(=O)c2ccc(C(F)(F)F)cc2)cc1)N1CC[C@H](O)[C@H](O)C1 (relative stereo) | 3 to 4

test system: Saccharomyces cerevisiae; assay: Potency index, ratio of miglitol IC50 to compound IC50 for inhibition of Saccharomyces cerevisiae alpha-glucosidase

SMILES | Ratio IC50
Nc1ccc(CCC(=O)N2CC[C@@H](O)[C@@H](O)C2)cc1 (relative stereo) | 2 to 3
O=C(CCc1ccc(NS(=O)(=O)c2ccc(C(F)(F)F)cc2)cc1)N1CC[C@H](O)[C@H](O)C1 (relative stereo) | 3 to 4

— ChEMBL document CHEMBL4196068, “Synthesis, molecular modeling and evaluation of α-glucosidase inhibition activity of 3,4-dihydroxy piperidines” (Eur J Med Chem, 2018)
